Here are results for two compounds from patent publication US20210317092A1 (BAYER PHARMA AKTIENGESELLSCHAFT, priority 2016, published 2021).

Like-named read-outs stand apart in the source and are kept apart here.

What all share (assay type): cell-based
In one test the test system is IL-6 secretion. Put plainly: Inhibitory activity on Bradykinin B1 agonist-induced secretion of IL-6 in human IMR-90 cells. The conditions noted are these: 30 min compound, stimulated with 0.1 μM Lys-[Des-Arg9]Bradykinin and 0.1 μM Sar-[D-Phe8]-des-Arg9-Bradykinin for 5 hours. The source says: (§1) Inhibitory activity on Bradykinin B1 agonist-induced secretion of IL-6 and IL-8 in human IMR-90 cells
(§2) The effect of the compound examples on secretion of the cytokine IL-6 and IL-8 has been investigated in the human foetal lung fibroblast IMR-90 cell line. Here the induction of the cytokine secretion was induced by the Bradykinin B1 agonists Lys-[Des-Arg9]Bradykinin (CAS 71800-36-7, Tocris Bioscience) and Sar-[D-Phe8]-des-Arg9-Bradykinin (CAS 126959-88-4, Tocris Bioscience) leading to the activation of the Bradykinin B1-driven signalling pathway. This effect is indicative for a strong anti-inflammatory mode of action in kinin driven inflammation.
(§3) IMR-90 cells were cultured in Eagle's Minimum Essential Medium (EMEM) containing 2 mM L-glutamine, 1 g/L glucose, 1.5 g/L NaHCO3, 1 mM sodium pyruvate and non-essential amino acids (ATCC, 30-2003™) supplemented with 10% FBS (Biochrom, S0615) and 50 U/mL Penicillin, 50 μg/mL Streptomycin (PAA, P11-010). The assay was performed in EMEM and a cell density of […] IMR-90 cells/96-well. The compound examples have been serial diluted in 100% DMSO and evaluated at 8 different concentrations within the range of 3 nM and 10 μM and a final DMSO concentration of 0.4%. The IMR-90 cells have been incubated with the respective concentration of the compound for 30 min. The enhanced secretion of IL-6 and IL-8 was induced by the stimulation of these cells with 0.1 μM Lys-[Des-Arg9]Bradykinin (Tocris, catalogue no. 3225) and 0.1 μM Sar-[D-Phe8]-des-Arg9-Bradykinin (Tocris, catalogue no. 3230) for 5 hours at 37° C. and 5% C02. Further, cells have been treated with Lys-[Des-Arg9]Bradykinin and Sar-[D-Phe8]-des-Arg9-Bradykinin as neutral control and with 0.1% DMSO as inhibitor control. The amount of IL-6 and IL-8 in the supernatant was determined using the Human Prolnflammatory Panel II (4-Plex) (MSD, K15025B) according to manufacturer's instruction. Briefly, supernatants were added onto assay plates and incubated at room temperature for 1-2 h with vigorous shaking at 600 rpm. Detection antibodies were then added onto the supernatants and incubated at room temperature for an additional 1-2 h with vigorous shaking at 600 rpm. Plates were washed three times with phosphate-buffered saline (PBS; 137 mM NaCl, 2.7 mM KCl, 6.5 mM Na2HPO4, 1.7 mM KH2P04) containing 0.05% Tween-20 (Bio-Rad, 161-0781) and electrochemiluminescence detected using the MSD Sector Imager 6000 plate reader. The cell viability was measured using the CellTiter-Glo Luminescent Assay (Promega, G7571) following the manufacturers protocol. Briefly, the CellTiter-Glo Reagent was diluted with PBS (1:1) and added directly to cells. After incubation and shaking for 10 minutes luminescent signal was measured which is proportional to the amount of ATP present.
(§4) The effect of the compound on the amount of secreted cytokine has been calculated as 100/(measured cytokine concentration of neutral control-measured cytokine concentration of inhibitor control)*(measured cytokine concentration of compound dose-measured cytokine concentration of inhibitor control). IC50 values are determined using 4-parameter-fit.
(§5) The compound examples were tested in triplicates per plate and the inhibitory activity was determined as the relation between neutral and inhibitor control in percent. IC50 values were calculated using the 4-parameter logistic model.

A further test relates to IL-8 secretion. Put plainly: Inhibitory activity on Bradykinin B1 agonist-induced secretion of IL-8 in human IMR-90 cells. The conditions noted are these: 30 min compound, stimulated with 0.1 μM Lys-[Des-Arg9]Bradykinin and 0.1 μM Sar-[D-Phe8]-des-Arg9-Bradykinin for 5 hours.
Description: as §1, §2, §3, §4, §5

Test [1] concerns the target T1, human Bradykinin B1 receptor (Homo sapiens, UniProt P46663).
T1 construct: host or cells: CHO-K1
T1 sequence (P46663 1-353): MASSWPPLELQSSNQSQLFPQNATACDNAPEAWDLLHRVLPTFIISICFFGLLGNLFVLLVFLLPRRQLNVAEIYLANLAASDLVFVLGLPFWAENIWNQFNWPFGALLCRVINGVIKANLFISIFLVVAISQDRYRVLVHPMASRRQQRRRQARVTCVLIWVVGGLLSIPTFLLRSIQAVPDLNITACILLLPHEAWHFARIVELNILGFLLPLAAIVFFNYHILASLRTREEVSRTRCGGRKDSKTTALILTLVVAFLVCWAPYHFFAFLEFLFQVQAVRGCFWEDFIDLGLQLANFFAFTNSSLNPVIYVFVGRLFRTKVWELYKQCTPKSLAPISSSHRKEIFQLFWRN
The test can be described thus: Calcium flux Assay (FLIPR) with recombinant CHO-K1 cells expressing human Bradykinin B1 receptor, in presence (hB1 IC50) or absence (hB1 free IC50) of 0.1% BSA. A general note: Calcium assays in cells follow changes in intracellular calcium, usually with a dye or a luminescent sensor.

Setting [2] is: in absence of 0.1% BSA, read-out: hB1 free IC50.
Where [3] appears, read: in presence of 0.1% BSA, read-out: hB1 IC50.

On to `CCOc1ccc(-c2ccc(NC(=O)C3(c4cccc(Cl)c4)CC3)cc2-c2nnn[nH]2)cn1` [Example 253, 1-(3-Chlorophenyl)-N-[4-(6-ethoxypyridin-3-yl)-3-(1H-tetrazol-5-yl)phenyl]cyclopropanecarboxamide], for which the IC50 in the test with IL-6 secretion was 57 nM; with IL-8 secretion it was 75 nM; in test [1] (setting [2]), 16.1 nM; in test [1] (setting [3]), 33.5 nM.

In the case of `COc1ccc(-c2ccc(NC(=O)C3(c4cccc(Cl)c4)CC3)cc2-c2nnn[nH]2)cc1OC` [Example 1, 1-(3-Chlorophenyl)-N-[3′,4′-dimethoxy-2-(1H-tetrazol-5-yl)biphenyl-4-yl]cyclopropanecarboxamide], the IC50 stood at 225 nM in the test with IL-6 secretion, 60 nM in the test on IL-8 secretion, 3.35 nM in test [1] (setting [2]) and 22.6 nM in test [1] (setting [3]).

The IC50 is the concentration at which inhibition is half-maximal.
